From patent publication US20020183362A1, “2-Fluorobenzenesulfonyl compounds for the treatment of inflammation” (Pharmacia Corporation, priority 2000, published 2002)
pIC50: −log10 of the molar value.

Key:
Human COX-2 [1] = biological target: T1, Human COX-2 (Homo sapiens, UniProt P35354); assay: Assay for COX-1 and COX-2 activity (PGE2 ELISA, recombinant enzyme), COX-2; format: biochemical; details: Table I; pre-incubated 10-20 minutes, arachidonic acid 10 μM, stopped after ten minutes, pH 8.0
T1 construct: A 2.0 kb fragment containing the coding region of either human or murine COX-1 or human or murine COX-2; made in house; host or cells: SF9 insect cells (baculovirus, transfer vector pVL1393)
T1 sequence (P35354 18-604): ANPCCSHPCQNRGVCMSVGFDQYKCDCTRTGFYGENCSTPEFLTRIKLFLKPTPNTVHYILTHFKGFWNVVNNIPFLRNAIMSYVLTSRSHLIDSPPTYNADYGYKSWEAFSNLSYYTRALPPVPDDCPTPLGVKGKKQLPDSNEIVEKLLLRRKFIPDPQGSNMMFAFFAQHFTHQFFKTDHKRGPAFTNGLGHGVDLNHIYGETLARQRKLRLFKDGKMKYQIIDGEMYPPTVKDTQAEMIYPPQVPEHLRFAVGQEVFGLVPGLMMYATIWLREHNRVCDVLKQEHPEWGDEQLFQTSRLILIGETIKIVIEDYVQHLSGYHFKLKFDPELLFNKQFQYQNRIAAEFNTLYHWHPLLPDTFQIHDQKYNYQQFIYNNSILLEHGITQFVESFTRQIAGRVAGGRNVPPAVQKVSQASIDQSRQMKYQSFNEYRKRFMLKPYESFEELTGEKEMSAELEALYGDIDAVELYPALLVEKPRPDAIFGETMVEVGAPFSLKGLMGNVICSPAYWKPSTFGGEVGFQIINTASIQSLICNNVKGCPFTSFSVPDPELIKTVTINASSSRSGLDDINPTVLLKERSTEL
Procedure: The COX-2 inhibition activity of the compounds of this invention illustrated in the Examples was determined by the following methods.
(§1) Recombinant COX-1 and COX-2 were prepared as described by Gierse et al, [J. Biochem., 305, 479-84 (1995)]. A 2.0 kb fragment containing the coding region of either human or murine COX-1 or human or murine COX-2 was cloned into a BamH1 site of the baculovirus transfer vector pVL1393 (Invitrogen) to generate the baculovirus transfer vectors for COX-1 and COX-2 in a manner similar to the method of D. R. O'Reilly et al (Baculovirus Expression Vectors: A Laboratory Manual (1992)). Recombinant baculoviruses were isolated by transfecting 4 μg of baculovirus transfer vector DNA into SF9 insect cells (2×10^8) along with 200 ng of linearized baculovirus plasmid DNA by the calcium phosphate method. See M. D. Summers and G. E. Smith, A Manual of Methods for Baculovirus Vectors and Insect Cell Culture Procedures, Texas Agric. Exp. Station Bull. 1555 (1987). Recombinant viruses were purified by three rounds of plaque purification and high titer (10^7-10^8 pfu/mL) stocks of virus were prepared. For large scale production, SF9 insect cells were infected in 10 liter fermentors (0.5×10^6/mL) with the recombinant baculovirus stock such that the multiplicity of infection was 0.1. After 72 hours the cells were centrifuged and the cell pellet homogenized in Tris/Sucrose (50 mM: 25%, pH 8.0) containing 1% 3-[(3-cholamidopropyl)dimethylammonio]-1-propanesulfonate (CHAPS). The homogenate was centrifuged at 10,000×G for 30 minutes, and the resultant supernatant was stored at −80° C. before being assayed for COX activity.
(§2) COX activity was assayed as PGE2 formed/μg protein/time using an ELISA to detect the prostaglandin released. CHAPS-solubilized insect cell membranes containing the appropriate COX enzyme were incubated in a potassium phosphate buffer (50 mM, pH 8.0) containing epinephrine, phenol, and heme with the addition of arachidonic acid (10 μM). Compounds were pre-incubated with the enzyme for 10-20 minutes prior to the addition of arachidonic acid. Any reaction between the arachidonic acid and the enzyme was stopped after ten minutes at 37° C./room temperature by transferring 40 μl of reaction mix into 160 μELISA buffer and 25 μM indomethacin. The PGE2 formed was measured by standard ELISA technology (Cayman Chemical).

Human COX-1 [2] = biological target: T2, Human COX-1 (Homo sapiens, UniProt P23219); assay: Assay for COX-1 and COX-2 activity (PGE2 ELISA, recombinant enzyme), COX-1; format: biochemical; details: Table I; pre-incubated 10-20 minutes, arachidonic acid 10 μM, stopped after ten minutes, pH 8.0
T2 construct: A 2.0 kb fragment containing the coding region of either human or murine COX-1 or human or murine COX-2; made in house; host or cells: SF9 insect cells (baculovirus, transfer vector pVL1393)
Procedure: as §1, with “Recombinant” for “Recombinant COX-1 and COX-2 were prepared as described by Gierse et al, [J. Biochem., 305, 479-84 (1995)]. A 2.0 kb fragment containing the coding region of either human or murine COX-1 or human or murine COX-2 was cloned into a BamH1 site of the baculovirus transfer vector pVL1393 (Invitrogen) to generate the baculovirus transfer vectors for COX-1 and COX-2 in a manner similar to the method of D. R. O'Reilly et al (Baculovirus Expression Vectors: A Laboratory Manual (1992)). Recombinant”, “1555 (1987).” left out
as §2, with “Any reaction between the arachidonic acid and the enzyme was stopped after ten minutes at 37° C./room temperature by transferring 40 μl of reaction mix into 160 μELISA buffer and 25 μM indomethacin.” left out

Human COX-2 [3] = biological target: T1, Human COX-2; assay: Fast assay for COX-1 and COX-2 activity (PGE2 ELISA), COX-2; format: biochemical; details: Table II, pre-incubated 10 minutes at 25° C., arachidonic acid 10 μM, stopped after two minutes, pH 7.5
Procedure: as §1
(§3) COX activity was assayed as PGE2 formed/μg protein/time using an ELISA to detect the prostaglandin released. CHAPS-solubilized insect cell membranes containing the appropriate COX enzyme were incubated in a potassium phosphate buffer (0.05 M Potassium phosphate, pH 7.5, 2 μM phenol, 1 μM heme, 300 μM epinephrine) with the addition of 20 μl of 100 μM arachidonic acid (10 μM). Compounds were pre-incubated with the enzyme for 10 minutes at 25° C. prior to the addition of arachidonic acid. Any reaction between the arachidonic acid and the enzyme was stopped after two minutes at 37° C./room temperature by transferring 40 μl of reaction mix into 160 μl ELISA buffer and 25 μM indomethacin. The PGE2 formed was measured by standard ELISA technology (Cayman Chemical).

Human COX-1 [4] = biological target: T2, Human COX-1; assay: Fast assay for COX-1 and COX-2 activity (PGE2 ELISA), COX-1; format: biochemical; details: Table II, pre-incubated 10 minutes at 25° C., arachidonic acid 10 μM, stopped after two minutes, pH 7.5
Procedure: as §1, with “Recombinant” for “Recombinant COX-1 and COX-2 were prepared as described by Gierse et al, [J. Biochem., 305, 479-84 (1995)]. A 2.0 kb fragment containing the coding region of either human or murine COX-1 or human or murine COX-2 was cloned into a BamH1 site of the baculovirus transfer vector pVL1393 (Invitrogen) to generate the baculovirus transfer vectors for COX-1 and COX-2 in a manner similar to the method of D. R. O'Reilly et al (Baculovirus Expression Vectors: A Laboratory Manual (1992)). Recombinant”, “1555 (1987).” left out
as §3, with “Any reaction between the arachidonic acid and the enzyme was stopped after two minutes at 37° C./room temperature by transferring 40 μl of reaction mix into 160 μl ELISA buffer and 25 μM indomethacin.” left out

T2 sequence (P23219 24-599): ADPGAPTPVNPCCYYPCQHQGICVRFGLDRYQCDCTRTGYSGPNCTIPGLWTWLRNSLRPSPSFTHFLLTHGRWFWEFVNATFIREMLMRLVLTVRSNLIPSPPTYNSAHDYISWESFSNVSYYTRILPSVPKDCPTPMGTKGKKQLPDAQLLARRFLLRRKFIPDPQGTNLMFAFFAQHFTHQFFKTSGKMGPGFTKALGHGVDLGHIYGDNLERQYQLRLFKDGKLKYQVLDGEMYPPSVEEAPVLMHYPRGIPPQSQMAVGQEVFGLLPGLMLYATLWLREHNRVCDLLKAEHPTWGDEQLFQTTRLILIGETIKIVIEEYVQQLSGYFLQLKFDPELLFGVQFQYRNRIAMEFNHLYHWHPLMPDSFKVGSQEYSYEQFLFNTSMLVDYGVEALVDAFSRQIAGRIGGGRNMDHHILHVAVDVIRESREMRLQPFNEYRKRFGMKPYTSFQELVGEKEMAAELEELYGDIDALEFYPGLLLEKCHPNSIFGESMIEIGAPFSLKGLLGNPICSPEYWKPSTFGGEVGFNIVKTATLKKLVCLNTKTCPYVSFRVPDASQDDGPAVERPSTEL

Compound | pIC50 (Human COX-2 [1]) | pIC50 (Human COX-1 [2]) | pIC50 (Human COX-2 [3]) | pIC50 (Human COX-1 [4]) | melting point [°C]
Cc1cccc(-n2nc(C(F)(F)F)cc2-c2ccc(S(C)(=O)=O)c(F)c2)c1 [Example 17, 5-[3-Fluoro-4-(methylsulfonyl)phenyl]-1-(3-methylphenyl)-3-(trifluoromethyl)-1H-pyrazole] | 5.98 | < 4.00 | 7.57 | 5.36 | 129 to 130
NS(=O)(=O)c1ccc(-c2cscc2-c2ccccc2)cc1F [Example 1, 2-Fluoro-4-(4-phenyl-3-thienyl)benzenesulfonamide] | 7.96 | 4.42 | 7.89 | 4.53 | 170.9 to 171
Cc1ccc(-n2nc(C(F)(F)F)cc2-c2ccc(S(C)(=O)=O)c(F)c2)cc1Cl [Example 15, 1-(3-Chloro-4-methylphenyl)-5-[3-fluoro-4-(methylsulfonyl)phenyl]-3-(trifluoromethyl)-1H-pyrazole] | 7.80 | < 4.00 | 7.82 | 5.63 | 144 to 145
COc1ccccc1-c1cc(C(F)(F)F)nn1-c1ccc(S(N)(=O)=O)c(F)c1 [Example 9, 2-Fluoro-4-[5-(2-methoxyphenyl)-3-(trifluoromethyl)-1H-pyrazol-1-yl]benzenesulfonamide] | 6.60 | < 4.00 | 6.74 | < 4.00 | 
CS(=O)(=O)c1ccc(C2=C(c3ccccc3)C(=O)OC2)cc1F [Example 24] | 4.80 | < 4.00 | 5.43 | < 4.00 | 161 to 162
CS(=O)(=O)c1ccc(-c2cc(C(F)(F)F)nn2C2CCCCC2)cc1F [Example 12, 1-Cyclohexyl-5-[3-fluoro-4-(methylsulfonyl)phenyl]-3-(trifluoromethyl)-1H-pyrazole] | 6.74 | < 4.00 | 6.85 | < 4.00 | 228 to 229
CS(=O)(=O)c1ccc(-c2cc(C(F)(F)F)nn2-c2ccc(C#N)cc2)cc1F [Example 16, 4-[5-[3-Fluoro-4-(methylsulfonyl)Phenyl]-3-(trifluoromethyl)-1H-Pyrazol-1-yl]benzonitrile] | 6.60 | < 4.00 | 6.06 | < 4.00 | 152 to 153
CS(=O)(=O)c1ccc(-c2cc(C(F)(F)F)nn2-c2ccc(F)cc2)cc1F [Example 11, 5-[3-Fluoro-4-(methylsulfonyl)phenyl]-1-(4-fluorophenyl)-3-(trifluoromethyl)-1H-pyrazole] | 6.82 | < 4.00 | 6.89 | 4.65 | 228 to 229
NS(=O)(=O)c1ccc(-n2nc(C(F)(F)F)cc2-c2ccc(F)cc2)cc1F [Example 8, 2-Fluoro-4-[5-(4-fluorophenyl)-3-(trifluoromethyl)-1H-pyrazol-1-yl]benzenesulfonamide] | 7.70 | 4.25 | 7.68 | 4.38 | 

More lines, in order of rising pIC50 (Human COX-2 [1]), values ahead:

pIC50 (Human COX-2 [1]) | pIC50 (Human COX-1 [2]) | pIC50 (Human COX-2 [3]) | pIC50 (Human COX-1 [4]) | melting point [°C] | Compound
6.26 | < 4.00 | 6.54 | < 4.00 |  | CS(=O)(=O)c1ccc(-c2cc(C(F)F)nn2-c2cccc(C(F)(F)F)c2)cc1F [Example 21]
6.74 | < 4.00 | 6.82 | < 4.00 |  | CS(=O)(=O)c1ccc(-c2cc(C(F)(F)F)nn2-c2cccc(C(F)(F)F)c2)cc1F [Example 13, 5-[3-Fluoro-4-(methylsulfonyl)phenyl]-3-(trifluoromethyl)-1-[3-(trifluoromethyl)phenyl]-1H-pyrazole]
7.21 | < 4.00 | 7.19 | < 4.00 | 110 to 112 | CS(=O)(=O)c1ccc(-c2cc(C(F)(F)F)nn2-c2ccc(OC(F)(F)F)cc2)cc1F [Example 14, 5-[3-Fluoro-4-(methylsulfonyl)phenyl]-3-(trifluoromethyl)-1-[4-(trifluoromethoxy)phenyl]-1H-pyrazole]
7.29 | < 4.00 | 7.37 | < 4.00 | 140 to 141 | CS(=O)(=O)c1ccc(-c2cscc2-c2ccccc2)cc1F [Example 2, 3-[3-Fluoro-4-(methylsulfonyl)phenyl]-4-phenylthiophene]
7.82 | < 4.00 | 8.30 | < 4.00 | 176 to 177 | Cc1onc(-c2ccc(F)cc2)c1-c1ccc(S(N)(=O)=O)c(F)c1 [Example 22, 2-Fluoro-4-[3-(4-fluorophenyl)-5-methyl-4-isoxazolyl]-benzenesulfonamide]
8.30 | 4.79 | 8.40 | 4.57 | 160 to 161 | Cc1ccc(-c2cc(C(F)F)nn2-c2ccc(S(N)(=O)=O)c(F)c2)cc1Cl [Example 3, 4-[5-(3-chloro-4-methylphenyl)-3-(difluoromethyl)-1H-pyrazol-1-yl]-2-fluorobenzenesulfonamide]
